Patent US20130288982A1, “THERAPEUTIC AGENT FOR PULMONARY SMALL CELL CARCINOMA” (TOKYO WOMEN'S MEDICAL UNIVERSITY, priority 2009, published 2013)
No end group written: not given here.

Columns and labels:
[1] = system: mRNA of the VEGFR1, RECK, MMP9 and MMP14 in the osteoclasts; experiment: mRNA expression of molecule groups in osteoclasts by qPCR; type: cell-based; details: peptide A vs scrambled peptide, 24 hours after addition
Protocol: (§1) The peptides were added to the cancer cells and osteoclasts to determine a change in the expression of each molecular group resulting from the interaction between the peptide and the cancer cells or between the peptide and osteoclasts by confirming the expression of mRNA using quantitative polymerase chain reaction (qPCR).
The following molecule groups were used which are expressed in the cancer cells and/or osteoclasts as reported in Yoko Morioka et al.: “The roles of MMPs and RECK in cancer progression”, Cell Technology. Vol. 28, No. 7, 659-679 (2009).
(§2) The cancer cells and the osteoclasts were separately inoculated into a 6-well plate at a density of 1×10^5 to 2×10^5 cells per well. Twenty-four hours later, the medium was changed to D-MEM (1% FCS, 2 mM L-glu). Another 24 hours later, the medium was changed, and at the same time the peptide A or the control was added. After 24 hours, the cells were collected and extraction of the RNA was conducted.

[2] = system: GAPDH mRNA in RERF-LC-MA cell; experiment: GAPDH mRNA expression in cancer cells by qPCR; type: cell-based, human; details: RERF-LC-MA cell (only in this cancer cell line), 24 hours after addition
Protocol: as §1
As the cancer cells, those as shown in Example 1 were used.
as §2

[3] = system: human prostate cancer cell line PC-3; experiment: Inhibition of proliferation of cancer cells (XTT based Cell Proliferation Kit), PC-3; details: peptide added, incubation at 37° C. for three days; data not shown
Protocol: (§3) The human pulmonary small cell carcinoma cell line RERF-LC-MA, the human prostate cancer cell line PC-3, and the human breast cancer cell line MCF-7 were used as the cancer cells.
(§4) A 96-well plate was inoculated with the above-mentioned cells at a density of 0.6×10^3 to 1.0×10^3 cells per well, and then cultured at 37° C. for three days. Then, cell proliferation was quantified using the Cell Proliferation Kit (XTT based).
(§5) Next, the above-mentioned peptides were separately added to the culture system at concentrations of 0 μg/mL, 1 μg/mL, 5 μg/mL and 10 μg/m, followed by incubation at 37° C. for three days. After completion of the incubation, the number of cancer cells was counted.

[4] = system: human breast cancer cell line MCF-7; experiment: Inhibition of proliferation of cancer cells (XTT based Cell Proliferation Kit), MCF-7; details: peptide added, incubation at 37° C. for three days; data not shown
Protocol: as §3, §4, §5

[5] = system: human pulmonary small cell carcinoma cell line RERF-LC-MA; experiment: Inhibition of proliferation of cancer cells (XTT based Cell Proliferation Kit), RERF-LC-MA; details: peptide added at 5 μg/mL or 10 μg/m, incubation at 37° C. for three days; p=0.031 vs scrambled peptide control
Protocol: as §3, §4, §5

GQNGSTPDGSTHFPSWEMAANEPLKTHRE [peptide A, 29-mer peptide derived from the TCTA protein, containing extracellular domain GQN]
expression of mRNA of MMP9 in the osteoclasts [1]: no significant difference
expression of mRNA of MMP14 in the osteoclasts [1]: no significant difference
expression of mRNA of RECK in the osteoclasts [1]: no significant difference
expression of mRNA of VEGFR1 in the osteoclasts [1]: no significant difference
GAPDH mRNA expression [2]: reduced
inhibitory effect on proliferation of the PC-3 cells [3]: almost no inhibitory effect
inhibitory effect on proliferation of the MCF-7 cells [4]: almost no inhibitory effect
proliferation of the RERF-LC-MA cells (reduced to) [5]: about 85%
